# From patent US20030078190A1 (priority 2001, published 2003)
# “And” between values parts separate entries of the source, which are not always exact repeats. Equal entries are not always repeated. “Also recorded” adds a separate entry of the source. Where two headings read alike, the source gives them in different places. Marks after values point to notes of the source that are not given here.
# What was measured:
# [1] = test system: patients with heavy proteinuria (>1.5 g/day); assay: 24-hour urinary protein excretion with high-dose candesartan cilexetil (Example 1); type: in vivo, human
# Procedure: The optimal doses of ACEIs and/or ARBs for maximal reduction in urinary protein excretion are not known. Moreover, beneficial effects from ARBs, such as tissue protection owing to a more complete blockade of the RAAS, may be independent of blood pressure-lowering by ARBs. This investigation was designed to evaluate whether increasing the dose of candesartan cilexetil, in subjects already on the FDA's maximum recommended daily doses of 32 mg, would induce a further reduction in 24-hour urinary protein excretion in patients with heavy proteinuria (urinary protein excretion >1.5 g/day; mean 4.4±2 g/day).
# (§1) Ten older patients (67±10 years; 80% male) with heavy proteinuria (>1.5 g/day) were started on 16 or 32 mg of candesartan cilexetil daily. Several patients had renal biopsies performed. Eight patients had nephrotic syndrome, four of whom had diabetic nephropathy, two had focal sclerosis, one had membranous nephropathy, and one had postinfectious nephropathy. The two other patients had nephrosclerosis, one being extremely severe and associated with moderate interstitial disease. Most of the patients were already receiving multiple medications for optimal BP control which included the following: calcium channel blockers (CCBs, 80%), diuretics (70%), beta blockers (40%), alpha blockers (40%), and ACEI (40%). Additional concurrent medications included lipid-lowering agents, anti-ischemic drugs and hypoglycemic agents. No effort was made to standardize any class of medications other than ARBs, and no other controls, such as sodium restriction, were instituted as patients were treated using standard office practice procedures.
# (§2) After 1-2 months of therapy, the dose of candesartan cilexetil was titrated upwards (at 16-32 mg dose increments) to 96 mg/d, while 24-hour urine samples were obtained to measure protein and creatinine. The candesartan doses were increased independently of the need for BP control. Subsequently, the effect of increased doses of candesartan on 24-hour urinary protein and creatinine excretion, BP, serum creatinine and potassium were serially measured.
# (§3) Baseline data was utilized either prospectively or from past patient records collected close to the time of the clinical observation period. […] Thus, no statistical analysis was performed but general trends are noted.
# [2] = test system: patients with heavy proteinuria (>1.5 g/day); assay: Blood pressure, serum creatinine, serum potassium and tolerability during candesartan dose titration (Example 1); type: in vivo, human
# Procedure: as §1, §2, §3
# [3] = test system: patients with dilated aortic roots; assay: Aortic root size by M-mode echocardiography under ARB therapy (Example 10); type: in vivo, human
# Excerpt: Since regression of the aortic root dilatation on echocardiogram was so unusual, a study was undertaken to evaluate other individuals with aortic root dilatation to determine whether aortic root aneurysms or dilatation could be reduced using ARBs. […] In order to evaluate one group of homogeneous subjects, the following were inclusion criteria: (1) same modality of testing to determine the thickness of the aortic root; (2) same instrument; (3) same interpreter of echocardiogram; (4) subjects needed to be on medication (antihypertensive including ARB or ARB if normotensive); (5) at least 9 months of ARB therapy; and (6) the disease was strictly aneurysm, not CAD or CHF. Applying the above inclusion criteria, a group of 15 subjects was selected for analysis. The group included 13 men and 2 women, aged 66.4±13.3 years and weighing 188.8±29.6 pounds. Aortic root sizes were measured using M-mode echocardiography with a leading-edge-to-leading-edge measurement of the maximal distance between the anterior aortic root wall and the posterior aortic root wall, measured at a level immediately above the cusps at end diastole. The standard deviation for intra-observer error was ±2 mm. Interval changes in aortic root size were measured as initial value-most recent value, where a positive resulting value indicated a corresponding decrease in aortic root size over the interval.
# hypertensive patients = conditions: cited from earlier work; for BP reductions in comparative short-term trials between ACEI and ARBs: in vivo
# AT1 receptor = biological target: T1, AT1 receptor (Homo sapiens, UniProt P30556); conditions: cited from earlier work
# T1 sequence (P30556 1-359): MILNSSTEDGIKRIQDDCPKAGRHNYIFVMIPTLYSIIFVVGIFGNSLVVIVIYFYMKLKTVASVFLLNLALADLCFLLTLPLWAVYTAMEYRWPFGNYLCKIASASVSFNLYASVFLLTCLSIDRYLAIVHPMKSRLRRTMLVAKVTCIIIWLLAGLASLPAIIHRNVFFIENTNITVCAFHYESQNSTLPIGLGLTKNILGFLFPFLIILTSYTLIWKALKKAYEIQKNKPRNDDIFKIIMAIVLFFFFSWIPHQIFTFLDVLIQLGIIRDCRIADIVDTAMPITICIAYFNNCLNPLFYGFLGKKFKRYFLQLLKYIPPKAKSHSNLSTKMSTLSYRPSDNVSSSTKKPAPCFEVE
# [4] = test system: subjects with both diabetic and non-diabetic renal disease; assay: Preliminary unpublished observations: microalbuminuria under supramaximal ARB doses; type: in vivo, human
# Excerpt: Strategies to enhance blockade of the tissue RAAS may result in greater renoprotective effects, by further reducing intraglomerular hydrostatic pressure and glomerular hypertrophy, and providing additional improvements in glomerular permselectivity. […] Utilizing ARBs rather than ACEI was chosen owing to evidence that ARBs provide enhanced tissue RAAS blockade by prevention of the ACE escape phenomenon and thus more complete blockade of angiotensin II (AII) produced by both ACE and non-ACE pathways.
# [5] = test system: normotensive, proteinuric patients with IgA nephropathy; conditions: increasing dose of lisinopril; cited from earlier work
# [6] = test system: normotensive patients with IgA nephropathy; conditions: cited from earlier work
# tissue ACE = tissue ACE (Homo sapiens, UniProt P12821); conditions: compared with other ACEI (e.g., enalapril); due to lipophilic properties; cited from earlier work
# tissue ACE, sequence (P12821 30-1306): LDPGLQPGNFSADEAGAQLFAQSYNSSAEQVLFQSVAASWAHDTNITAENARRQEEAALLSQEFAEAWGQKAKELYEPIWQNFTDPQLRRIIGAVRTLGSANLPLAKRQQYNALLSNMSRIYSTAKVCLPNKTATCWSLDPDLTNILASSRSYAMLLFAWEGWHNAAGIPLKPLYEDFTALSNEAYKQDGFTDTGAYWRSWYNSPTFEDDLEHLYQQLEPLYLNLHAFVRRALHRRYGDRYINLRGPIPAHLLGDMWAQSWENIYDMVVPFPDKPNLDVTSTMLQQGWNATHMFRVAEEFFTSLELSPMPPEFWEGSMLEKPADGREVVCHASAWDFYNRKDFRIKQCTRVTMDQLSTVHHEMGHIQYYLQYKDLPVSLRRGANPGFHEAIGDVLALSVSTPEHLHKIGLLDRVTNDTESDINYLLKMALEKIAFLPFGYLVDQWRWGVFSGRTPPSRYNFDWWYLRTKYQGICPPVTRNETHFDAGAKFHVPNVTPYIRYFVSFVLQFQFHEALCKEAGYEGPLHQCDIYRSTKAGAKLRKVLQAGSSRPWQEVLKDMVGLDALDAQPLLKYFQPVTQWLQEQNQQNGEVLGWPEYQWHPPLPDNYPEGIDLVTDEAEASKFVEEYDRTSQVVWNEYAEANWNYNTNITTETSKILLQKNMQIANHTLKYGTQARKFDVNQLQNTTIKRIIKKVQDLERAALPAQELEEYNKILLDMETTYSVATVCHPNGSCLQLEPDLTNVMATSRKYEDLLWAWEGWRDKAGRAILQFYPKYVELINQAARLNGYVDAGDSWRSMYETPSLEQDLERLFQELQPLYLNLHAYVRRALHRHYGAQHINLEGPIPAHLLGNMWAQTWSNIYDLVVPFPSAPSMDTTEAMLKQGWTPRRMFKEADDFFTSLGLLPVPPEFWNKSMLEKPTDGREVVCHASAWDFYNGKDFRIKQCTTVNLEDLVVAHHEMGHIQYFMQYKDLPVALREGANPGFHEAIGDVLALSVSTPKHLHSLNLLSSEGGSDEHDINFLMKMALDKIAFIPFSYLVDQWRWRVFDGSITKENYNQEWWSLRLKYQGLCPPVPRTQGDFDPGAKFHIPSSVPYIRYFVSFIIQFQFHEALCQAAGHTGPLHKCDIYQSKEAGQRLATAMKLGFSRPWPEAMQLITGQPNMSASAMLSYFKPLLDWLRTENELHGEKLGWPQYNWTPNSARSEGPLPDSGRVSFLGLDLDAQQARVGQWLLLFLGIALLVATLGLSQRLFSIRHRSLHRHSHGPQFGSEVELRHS
structure (smiles),measurement,setting,value
"CCOc1nc2cccc(C(=O)OC(C)OC(=O)OC3CCCCC3)c2n1Cc1ccc(-c2ccccc2-c2nnn[nH]2)cc1 (stereo not drawn) [Candesartan cilexetil, candesartan cilexetil]","Protein Excretion, Mean","[1]; 16 mg/day column, mean of N=4 (includes one losartan 50 mg and one irbesartan 150 mg value)",2.8 g/day
same,"Protein Excretion, Mean","[1]; 32 mg/day column, mean of N=10 (includes one irbesartan 300 mg value)",2.7 g/day
same,Protein Excretion (24-hour urinary protein excretion rate),"[1]; candesartan cilexetil 16 mg/day, individual patients",3.2 g/day and 6.4 g/day
same,Protein Excretion (24-hour urinary protein excretion rate),"[1]; candesartan cilexetil 32 mg/day, individual patients",1.1 g/day and 2.0 g/day and 0.8 g/day and 4.9 g/day and 3.3 g/day and 2.7 g/day and 6.4 g/day and 4.6 g/day and 1.2 g/day
same,Protein Excretion (24-hour urinary protein excretion rate),"[1]; candesartan cilexetil 48 mg/day, individual patients",0.9 g/day and 0.2 g/day (2×) and 2.6 g/day and 1.7 g/day and 2.9 g/day and 5.8 g/day and 1.2 g/day
same,"Protein Excretion, Mean","[1]; candesartan cilexetil 48 mg/day, mean of N=8",1.9 g/day
same,Protein Excretion (24-hour urinary protein excretion rate),"[1]; candesartan cilexetil 64 mg/day, individual patients",1.7 g/day and 1.1 g/day and 0.4 g/day and 0.2 g/day and 1.3 g/day and 3.0 g/day and 4.7 g/day and 0.7 g/day
same,"Protein Excretion, Mean","[1]; candesartan cilexetil 64 mg/day, mean of N=8",1.6 g/day
same,Protein Excretion (24-hour urinary protein excretion rate),"[1]; candesartan cilexetil 80 mg/day, individual patients",0.9 g/day and 0.5 g/day and 0.3 g/day and 1.6 g/day and 3.4 g/day and 1.4 g/day and 2.4 g/day and 0.6 g/day
same,"Protein Excretion, Mean","[1]; candesartan cilexetil 80 mg/day, mean of N=8",1.4 g/day
same,Protein Excretion (24-hour urinary protein excretion rate),"[1]; candesartan cilexetil 96 mg/day, individual patients",0.6 g/day and 0.2 g/day and 1.8 g/day and 2.3 g/day and 0.7 g/day
same,"Protein Excretion, Mean","[1]; candesartan cilexetil 96 mg/day, mean of N=5",1.1 g/day
same,Effect on 24-hour urinary protein excretion beyond the recommended maximum dose,[1]; dose extended beyond 32 mg/d,progressive reductions in 24-hour urinary protein excretion; also recorded: further reductions in urinary protein excretion in all subjects
same,Safety and tolerability,[2]; doses between 32 and 96 mg,"safe, well-tolerated"
CCOc1nc2cccc(C(=O)O)c2n1Cc1ccc(-c2ccccc2-c2nnn[nH]2)cc1 [candesartan],Tolerability,[2]; 96 mg/d,"well tolerated, metabolically neutral"
same,Increase in serum creatinine,"[2]; at the higher doses of candesartan, attributable primarily to two of the ten patients",0.5 to 0.7 mg/dL
same,Serum potassium,[2]; throughout the dosing range of candesartan,4.3 to 4.5 mmol/L
same,Interval change in aortic root size (initial value minus most recent value),"[3]; one hypertensive subject, 128 mg/d",8 mm
same,Interval change in aortic root size (initial value minus most recent value),"[3]; one normotensive subject, 64 mg/d",12 mm
same,Decrease in aortic root size,"[3]; ten of 15 subjects, at least 9 months of ARB therapy",more than 2 mm
CCOC(=O)[C@H](CCc1ccccc1)N[C@@H](C)C(=O)N1CCC[C@H]1C(=O)O [enalapril],BP reductions in comparative short-term trials between ACEI and ARBs,hypertensive patients,equivalent BP reductions
CCCCc1ncc(/C=C(\Cc2cccs2)C(=O)O)n1Cc1ccc(C(=O)O)cc1 [eprosartan],Affinity for the AT1 receptor,AT1 receptor,lower affinity
same,Type of antagonism at the AT1 receptor,AT1 receptor,surmountable
CCCCC1=NC2(CCCC2)C(=O)N1Cc1ccc(-c2ccccc2-c2nnn[nH]2)cc1 [irbesartan],Effect on microalbuminuria,[4],additional reductions in microalbuminuria
same,Protein Excretion (24-hour urinary protein excretion rate),"[1]; irbesartan 150 mg, patient 7",0.5** g/day
same,Protein Excretion (24-hour urinary protein excretion rate),"[1]; irbesartan 300 mg, patient 6",0.4^§ g/day
same,Affinity for the AT1 receptor,AT1 receptor,high affinity
same,Type of antagonism at the AT1 receptor,AT1 receptor,insurmountable
same,BP reductions in comparative short-term trials between ACEI and ARBs,hypertensive patients,equivalent BP reductions
NCCCC[C@H](N[C@@H](CCc1ccccc1)C(=O)O)C(=O)N1CCC[C@H]1C(=O)O [lisinopril],Renal protective effect of increasing the dose,[5],"additional renal protective effects, independent of any BP reductions"
same,BP reductions in comparative short-term trials between ACEI and ARBs,hypertensive patients,equivalent BP reductions
CCCCc1nc(Cl)c(CO)n1Cc1ccc(-c2ccccc2-c2nn[nH]n2)cc1 [losartan],Effect on microalbuminuria,[4],additional reductions in microalbuminuria
same,Protein Excretion (24-hour urinary protein excretion rate),"[1]; losartan 50 mg, patient 6",1.1^+ g/day
same,Change of urinary protein excretion on monotherapy,"[6]; either drug as monotherapy, ARB = losartan",−27%
same,Reduction of urinary protein excretion on combined ACEI and ARB therapy,[6]; losartan 50 mg/day added to a moderate dose of an ACEI,69%
same,Type of antagonism at the AT1 receptor,AT1 receptor,surmountable
same,Type of antagonism at the AT1 receptor,AT1 receptor; listed as Losartan,competitive antagonist
same,BP reductions compared with ACEI,hypertensive patients; a few studies,smaller BP reductions
same,BP reductions in comparative short-term trials between ACEI and ARBs,hypertensive patients,equivalent BP reductions
same,Antihypertensive response to add-on therapy,"hypertensive patients; losartan 25-50 mg/d added to existing ramipril 2.5-5 mg/d, four-week study of 30 hypertensives",enhanced
CCOC(=O)[C@H](CCc1ccccc1)N[C@@H](C)C(=O)N1Cc2ccccc2C[C@H]1C(=O)O [quinapril],Ability to block tissue ACE activity,tissue ACE,better able to block tissue ACE activity
CCOC(=O)[C@H](CCc1ccccc1)N[C@@H](C)C(=O)N1[C@H](C(=O)O)C[C@@H]2CCC[C@@H]21 [ramipril],Additive antihypertensive response to add-on therapy,hypertensive patients; ACEI (ramipril) added to existing ARB (losartan) therapy,small and not significant
CCCc1nc2c(C)cc(-c3nc4ccccc4n3C)cc2n1Cc1ccc(-c2ccccc2C(=O)O)cc1 [telmisartan],BP reductions in comparative short-term trials between ACEI and ARBs,hypertensive patients,equivalent BP reductions
CCCCC(=O)N(Cc1ccc(-c2ccccc2-c2nnn[nH]2)cc1)[C@H](C(=O)O)C(C)C [valsartan],Effect on microalbuminuria,[4],additional reductions in microalbuminuria
same,BP reductions in comparative short-term trials between ACEI and ARBs,hypertensive patients,equivalent BP reductions
